Reference: US20200375943A1 (priority 2019, published 2020)
Where two headings read alike, the source gives them in different places.

Tests used:
[1] = biological target: T1, SVCT2 (Homo sapiens, UniProt Q9UGH3); parameters: endogenous in cells; host or cells: HTR-8/SVneo human trophoblast cell line; conditions: cited from earlier work; for inhibitory action for LAA transporter SVCT2: HTR-8/SVneo cells; for uptake of LAA via SVCT2: trophoblast cells
Target sequence in this assay (Q9UGH3 whole entry): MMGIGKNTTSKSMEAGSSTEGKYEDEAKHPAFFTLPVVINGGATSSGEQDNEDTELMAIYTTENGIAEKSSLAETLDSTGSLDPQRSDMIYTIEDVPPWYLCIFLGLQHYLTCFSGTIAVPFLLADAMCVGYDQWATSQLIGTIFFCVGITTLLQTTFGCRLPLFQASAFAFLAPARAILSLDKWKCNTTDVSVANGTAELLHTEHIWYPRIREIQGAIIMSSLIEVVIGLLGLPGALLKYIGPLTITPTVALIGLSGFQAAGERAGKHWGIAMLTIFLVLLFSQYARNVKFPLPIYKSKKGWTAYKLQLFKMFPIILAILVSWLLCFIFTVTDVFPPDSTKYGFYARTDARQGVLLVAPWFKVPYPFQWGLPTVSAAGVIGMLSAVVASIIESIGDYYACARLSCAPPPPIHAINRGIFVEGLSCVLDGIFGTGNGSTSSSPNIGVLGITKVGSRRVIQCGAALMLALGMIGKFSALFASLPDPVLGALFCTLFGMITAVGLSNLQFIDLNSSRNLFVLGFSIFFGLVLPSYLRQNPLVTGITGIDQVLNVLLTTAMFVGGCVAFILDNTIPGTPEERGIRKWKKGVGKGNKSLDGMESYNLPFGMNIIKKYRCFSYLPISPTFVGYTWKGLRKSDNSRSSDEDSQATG

[2] = biological target: T1, SVCT2; parameters: endogenous in cells; host or cells: bone marrow stromal cells (BMSCs); conditions: 600 uM, BMSCs; cited from earlier work
Target sequence in this assay (Q9UGH3 whole entry, species assumed): as the sequence (Q9UGH3 whole entry) above

[3] = biological target: T2, SVCT1(h) (Homo sapiens, UniProt Q9UHI7); conditions: 50 uM, ascorbate 10-400 uM; cited from earlier work
T2 construct: expressed in transfected cells
T2 sequence (Q9UHI7 whole entry): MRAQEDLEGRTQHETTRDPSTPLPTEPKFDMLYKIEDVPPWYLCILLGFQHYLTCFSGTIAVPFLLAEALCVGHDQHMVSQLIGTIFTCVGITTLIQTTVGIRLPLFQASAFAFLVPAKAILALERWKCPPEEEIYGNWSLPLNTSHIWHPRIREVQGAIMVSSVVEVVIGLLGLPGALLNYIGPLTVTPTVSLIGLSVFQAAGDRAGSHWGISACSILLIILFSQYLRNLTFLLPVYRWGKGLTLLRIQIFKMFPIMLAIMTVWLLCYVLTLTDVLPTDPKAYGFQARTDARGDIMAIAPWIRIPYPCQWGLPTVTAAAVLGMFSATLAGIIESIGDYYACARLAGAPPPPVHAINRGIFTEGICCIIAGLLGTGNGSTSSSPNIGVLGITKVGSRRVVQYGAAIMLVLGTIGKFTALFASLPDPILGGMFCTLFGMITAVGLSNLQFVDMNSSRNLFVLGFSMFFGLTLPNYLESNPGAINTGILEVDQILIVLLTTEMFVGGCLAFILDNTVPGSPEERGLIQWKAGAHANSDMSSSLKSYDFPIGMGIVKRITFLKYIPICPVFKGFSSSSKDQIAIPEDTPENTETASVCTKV

[4] = humans, oral; cited from earlier work
[5] = test system: SVCT2; conditions: 200 uM, cortical or cerebellar neurons; cited from earlier work
[6] = cited from earlier work
[7] = test system: sarcoma tumors; conditions: oral gavage, cited from earlier work
[8] = test system: leukemic blast cells; test: Phase I/II clinical trial of LAA depletion alternating with LAA supplementation; format: in vivo, human
Description: No. 12, Blood. 2000 (see Reference 9).
That is, in the example, a leukemia patient first received a chemotherapy and subsequently received the LAA supplementation. […] The noted sharp decline is much more precipitous than what can be observed with chemotherapy.
In the example, the significant improvement is also noted that there was a total of 8 out of 16 patients in the Phase I/II clinical trial responding (p=0.007).

[9] = test system: human leukemic cells; conditions: bone marrows from 259 patients; cited from earlier work

## O=C(O)Cc1ccccc1Nc1c(Cl)cccc1Cl [diclofenac]
[1]
  inhibitory action for LAA transporter SVCT2: very strong inhibitory action
  uptake of LAA via SVCT2: inhibit the uptake of LAA

## C[C@]12CC[C@@H]3c4ccc(O)cc4CC[C@H]3[C@@H]1CC[C@@H]2O [17β-estadiol]
[1]
  inhibitory action for LAA transporter SVCT2: very strong inhibitory action

## COc1ccc2c(c1)c(CC(=O)O)c(C)n2C(=O)c1ccc(Cl)cc1 [indomethacin]
[1]
  uptake of LAA via SVCT2: inhibit the uptake of LAA

## Cl.N=c1c[n+](N2CCOCC2)[n-]o1 [SIN-1, 3-(4-Morpholinyl) sydnonimine hydrochloride]
[2]
  decrease in LAA uptake: up to 40%

## O=c1c(O)c(-c2ccc(O)c(O)c2)oc2cc(O)cc(O)c12 [quercetin]
[1]
  inhibitory action for LAA transporter SVCT2: very strong inhibitory action
[3]
  inhibition of LAA transporter SVCT1(h): about 80%
[4]
  dose administered orally without side effects: 4 g
[5]
  decrease of LAA transport SVCT2: 80%

## O=C1O[C@H]([C@@H](O)CO)C(O)=C1O [LAA, L-ascorbic acid]
[6]; intravenous infusion
  peak concentrations without significant adverse effects: over 10 mMol
[6]; oral, up to 180 gram per day in divided doses
  blood levels: ≤ 200 µM
[7]; 0.3 mg/kg/day, up to 24 weeks
  complete tumor regression, animals: 55%
[7]; 10 mg/kg/day
  tumor growth: tumor inhibition but no regression
[7]; 1 g/kg/day
  tumor growth: grew without sign of retardation
[8]; LAA supplementation after chemotherapy (FIG. 3B)
  D-dimer test for massive cell lysis: sharp increase
[8]; Phase I/II clinical trial, 16 evaluated patients, p=0.007
  patients responding: 8 out of 16
[8]; after 10 days of LAA supplementation, relapse after cytotoxic chemotherapy (FIG. 3A)
  leukemic blast cells in peripheral blood: sharp decline
[8]; alternation of LAA supplementation and depletion, same patient (FIG. 2B)
  frequency of platelet transfusion: marked reduction in the frequency of platelet transfusion
[8]; during supplementation of LAA phase, intravenous, one patient (FIG. 2A)
  leukemic blast cell number (peripheral blood and bone marrow): decline in leukemic blast cell number
[8]; during supplementation of LAA phase, one patient (FIG. 2A)
  spleen size: decline in spleen size
[9]
  patients whose leukemic cells had the requirement of LAA for growth: ~50%

## O=c1c(-c2ccc(O)cc2)coc2cc(O)cc(O)c12 [genistein]
[1]
  inhibitory action for LAA transporter SVCT2: very strong inhibitory action
